{"source": "ChEMBL document CHEMBL5038655", "about": "“Development of Novel Dihydrofuro[3,4-d]pyrimidine Derivatives as HIV-1 NNRTIs to Overcome the Highly Resistant Mutant Strains F227L/V106A and K103N/Y181C” (J Med Chem, 2022)", "key": {"[1]": {"test": "AUC(0 to t) in Sprague-Dawley rat at 10 mg/kg, po measured upto 12 hrs by LC-MS/MS analysis", "format": "ADME, organism-based", "set-up": "route oral, dose 10 mg/kg, time <=12", "conditions": "in vivo"}, "[2]": {"test": "Cytotoxicity against human MT4 cells assessed as reduction in cell viability incubated for 5 days by MTT assay", "format": "toxicity, cell-based", "conditions": "time 5 day"}, "[3]": {"test": "Oral bioavailability in Sprague-Dawley rat at 10 mg/kg measured upto 12 hrs by LC-MS/MS analysis", "format": "ADME, organism-based", "conditions": "in vivo"}, "[4]": {"test": "Cmax in Sprague-Dawley rat at 2 mg/kg, iv measured upto 10 hrs by LC-MS/MS analysis", "format": "ADME, organism-based", "set-up": "route intravenous, dose 2 mg/kg, time <=10", "conditions": "in vivo"}, "[5]": {"test": "Acute toxicity in Kunming mouse assessed as change in body weight at 2000 mg/kg, po measured for 7 days", "format": "organism-based", "conditions": "in vivo, time 7 day"}, "[6]": {"tested_on": "Human immunodeficiency virus 1", "test": "Antiviral activity against HIV-1 IIIB infected in human MT4 cells assessed as protection against virus-induced cytotoxicity incubated for 5 days by MTT assay", "format": "functional, organism-based", "conditions": "Human immunodeficiency virus 1, IIIB, MT4, 120 h"}, "[7]": {"tested_on": "Human immunodeficiency virus 1", "test": "Antiviral activity against HIV-1 IIIB harboring K103N/Y181C double mutant infected in human MT4 cells assessed as protection against virus-induced cytotoxicity incubated for 5 days by MTT assay", "format": "functional, organism-based", "conditions": "Human immunodeficiency virus 1, IIIB, MT4, 120 h"}, "[8]": {"test": "Aqueous solubility of the compound at pH 7.4 by HPLC analysis", "format": "physicochemical", "conditions": "buffer"}, "[9]": {"test": "Aqueous solubility of the compound at pH 7.0 by HPLC analysis", "format": "physicochemical", "conditions": "buffer"}, "[10]": {"tested_on": "Human immunodeficiency virus 1", "test": "Antiviral activity against HIV-1 harboring reverse transcriptase Y181C mutant infected in human MT4 cells assessed as protection against virus-induced cytopathic effect incubated for 5 days by MTT assay", "conditions": "Human immunodeficiency virus 1, MT4, 120 h"}, "[11]": {"test": "Terminal half life in Sprague-Dawley rat at 10 mg/kg, po measured upto 12 hrs by LC-MS/MS analysis", "format": "ADME, organism-based", "conditions": "in vivo, read-out: beta t1/2 (converted)"}, "[12]": {"target": "Human immunodeficiency virus type 1 reverse transcriptase (Human immunodeficiency virus 1, UniProt Q72547)", "test": "Inhibition of wild type HIV-1 reverse transcriptase using biotin-labelled dNTPs as substrate incubated for 2 hrs by ELISA"}, "[13]": {"test": "Tmax in Sprague-Dawley rat at 2 mg/kg, iv measured upto 10 hrs by LC-MS/MS analysis", "format": "ADME, organism-based", "conditions": "in vivo"}, "[14]": {"tested_on": "Human immunodeficiency virus 1", "test": "Potency index, ratio of etravirine EC50 to test compound EC50 for antiviral activity against HIV-1 harboring reverse transcriptase F227L/V106A mutant infected in human MT4 cells assessed as protection against virus-induced cytopathic effect incubated for 5 days by MTT assay", "format": "functional", "conditions": "time 5 day"}, "[15]": {"tested_on": "Human immunodeficiency virus 1", "test": "Antiviral activity against HIV1 L1001 infected in human MT4 cells assessed as protection against virus-induced cytopathic effect incubated for 5 days by MTT assay", "format": "functional, organism-based", "conditions": "Human immunodeficiency virus 1, L1001, MT4, 120 h"}, "[16]": {"test": "AUC(0 to t) in Sprague-Dawley rat at 2 mg/kg, iv measured upto 10 hrs by LC-MS/MS analysis", "format": "ADME, organism-based", "set-up": "route intravenous, dose 2 mg/kg, time <=10", "conditions": "in vivo"}, "[17]": {"tested_on": "Human immunodeficiency virus 1", "test": "Antiviral activity against HIV-1 harboring reverse transcriptase E138K mutant infected in human MT4 cells assessed as protection against virus-induced cytopathic effect incubated for 5 days by MTT assay", "conditions": "Human immunodeficiency virus 1, MT4, 120 h"}, "[18]": {"test": "Clearance in Sprague-Dawley rat at 2 mg/kg, iv measured upto 10 hrs by LC-MS/MS analysis", "format": "ADME, organism-based", "conditions": "in vivo"}, "[19]": {"tested_on": "Human immunodeficiency virus 1", "test": "Potency index, ratio of rilpivirine EC50 to test compound EC50 for antiviral activity against HIV-1 harboring reverse transcriptase F227L/V106A mutant infected in human MT4 cells assessed as protection against virus-induced cytopathic effect incubated for 5 days by MTT assay", "format": "functional", "conditions": "time 5 day"}, "[20]": {"test": "Aqueous solubility of the compound at pH 2.0 by HPLC analysis", "format": "physicochemical", "conditions": "buffer"}, "[21]": {"test": "Terminal half life in Sprague-Dawley rat at 2 mg/kg, iv measured upto 10 hrs by LC-MS/MS analysis", "format": "ADME, organism-based", "conditions": "in vivo, read-out: beta t1/2 (converted)"}, "[22]": {"test": "Selectivity index, ratio of CC50 for human MT4 cells to EC50 for antiviral activity against HIV-1 IIIB harboring K103N/Y181C double mutant infected in human MT4 cells", "format": "toxicity, cell-based", "conditions": "read-out: Ratio CC50/EC50"}, "[23]": {"test": "AUC(0 to infinity) in Sprague-Dawley rat at 2 mg/kg, iv measured upto 10 hrs by LC-MS/MS analysis", "format": "ADME, organism-based", "set-up": "route intravenous, dose 2 mg/kg, time <=10", "conditions": "in vivo"}, "[24]": {"tested_on": "Human immunodeficiency virus 1", "test": "Antiviral activity against HIV-1 harboring reverse transcriptase Y188L mutant infected in human MT4 cells assessed as protection against virus-induced cytopathic effect incubated for 5 days by MTT assay", "conditions": "Human immunodeficiency virus 1, MT4, 120 h"}, "[25]": {"test": "Tmax in Sprague-Dawley rat at 10 mg/kg, po measured upto 12 hrs by LC-MS/MS analysis", "format": "ADME, organism-based", "conditions": "in vivo"}, "[26]": {"test": "Cmax in Sprague-Dawley rat at 10 mg/kg, po measured upto 12 hrs by LC-MS/MS analysis", "format": "ADME, organism-based", "set-up": "route oral, dose 10 mg/kg, time <=12", "conditions": "in vivo"}, "[27]": {"tested_on": "Human immunodeficiency virus 1", "test": "Antiviral activity against HIV-1 harboring reverse transcriptase K103N mutant infected in human MT4 cells assessed as protection against virus-induced cytopathic effect incubated for 5 days by MTT assay", "conditions": "Human immunodeficiency virus 1, MT4, 120 h"}, "[28]": {"test": "AUC(0 to infinity) in Sprague-Dawley rat at 10 mg/kg, po measured upto 12 hrs by LC-MS/MS analysis", "format": "ADME, organism-based", "set-up": "route oral, dose 10 mg/kg, time <=12", "conditions": "in vivo"}, "[29]": {"tested_on": "Human immunodeficiency virus 1", "test": "Antiviral activity against HIV-1 harboring reverse transcriptase F227L/V106A mutant infected in human MT4 cells assessed as protection against virus-induced cytopathic effect incubated for 5 days by MTT assay", "conditions": "Human immunodeficiency virus 1, MT4, 120 h"}, "[30]": {"test": "Selectivity index, ratio of CC50 for human MT4 cells to EC50 for antiviral activity against HIV-1 IIIB infected in human MT4 cells", "format": "toxicity, cell-based", "conditions": "MT4 cells (uninfected and infected with HIV-1 IIIB), read-out: Ratio CC50/EC50"}}, "data": [{"smiles": "Cc1cc(/C=C/C#N)cc(C)c1Oc1nc(NC2CCN(c3ccc(NS(C)(=O)=O)cc3)CC2)nc2c1COC2", "values": [{"measurement": "AUC(0-t) at 12 h", "setting": "[1]", "result": 727, "unit": "ng·h/mL"}, {"measurement": "CC50 at 120 h", "setting": "[2]", "result": 38.8, "unit": "µM"}, {"measurement": "bioavailability", "setting": "[3]", "result": 16.6, "unit": "%"}, {"measurement": "Cmax", "setting": "[4]", "result": 756, "unit": "ng/mL"}, {"measurement": "Activity", "setting": "[5]", "result": "Non-Toxic"}, {"measurement": "EC50", "setting": "[6]", "result": 6.17, "unit": "nM"}, {"measurement": "EC50", "setting": "[7]", "result": 27.9, "unit": "nM"}, {"measurement": "solubility", "setting": "[8]", "result": 2.1, "unit": "µg/mL"}, {"measurement": "solubility", "setting": "[9]", "result": 10.1, "unit": "µg/mL"}, {"measurement": "EC50", "setting": "[10]", "result": 8.91, "unit": "nM"}, {"measurement": "half-life", "setting": "[11]", "result": 88.2, "unit": "min"}, {"measurement": "IC50", "setting": "[12]", "result": 150, "unit": "nM"}, {"measurement": "Tmax", "setting": "[13]", "result": 1.98, "unit": "min"}, {"measurement": "Ratio EC50", "setting": "[14]", "result": 3.6}, {"measurement": "EC50", "setting": "[15]", "result": 12.4, "unit": "nM"}, {"measurement": "AUC(0-t) at 10 h", "setting": "[16]", "result": 903, "unit": "ng·h/mL"}, {"measurement": "EC50", "setting": "[17]", "result": 7.66, "unit": "nM"}, {"measurement": "clearance", "setting": "[18]", "result": 36.7, "unit": "mL/min/kg"}, {"measurement": "Ratio EC50", "setting": "[19]", "result": 14}, {"measurement": "solubility", "setting": "[20]", "result": 124, "unit": "µg/mL"}, {"measurement": "half-life", "setting": "[21]", "result": 66.6, "unit": "min"}, {"measurement": "selectivity ratio", "setting": "[22]", "result": 1390}, {"measurement": "AUC(0-inf)", "setting": "[23]", "result": 908, "unit": "ng·h/mL"}, {"measurement": "EC50", "setting": "[24]", "result": 28.3, "unit": "nM"}, {"measurement": "Tmax", "setting": "[25]", "result": 1, "unit": "h"}, {"measurement": "Cmax", "setting": "[26]", "result": 307, "unit": "ng/mL"}, {"measurement": "EC50", "setting": "[27]", "result": 6.91, "unit": "nM"}, {"measurement": "AUC(0-inf)", "setting": "[28]", "result": 753, "unit": "ng·h/mL"}, {"measurement": "EC50", "setting": "[29]", "result": 5.79, "unit": "nM"}, {"measurement": "selectivity ratio", "setting": "[30]", "result": 6290}]}]}
